Experiments:
[1] = biological target: T1, Nuclear receptor subfamily 1 group I member 2 (Homo sapiens, UniProt O75469); assay: Transactivation of PXR (unknown origin) expressed in human HepG2 cells; type: cell-based
T1 sequence (O75469 whole entry): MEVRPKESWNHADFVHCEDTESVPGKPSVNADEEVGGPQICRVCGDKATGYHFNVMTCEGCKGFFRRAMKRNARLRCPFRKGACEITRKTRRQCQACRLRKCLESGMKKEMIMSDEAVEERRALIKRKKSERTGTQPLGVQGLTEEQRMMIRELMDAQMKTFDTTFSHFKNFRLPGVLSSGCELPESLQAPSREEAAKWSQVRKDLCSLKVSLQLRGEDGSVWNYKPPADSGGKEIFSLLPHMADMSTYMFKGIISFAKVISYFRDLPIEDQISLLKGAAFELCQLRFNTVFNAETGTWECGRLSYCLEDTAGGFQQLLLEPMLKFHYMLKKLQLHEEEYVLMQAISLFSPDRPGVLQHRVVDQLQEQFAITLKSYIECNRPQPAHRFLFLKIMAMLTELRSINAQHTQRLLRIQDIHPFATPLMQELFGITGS

[2] = biological target: T2, Oxysterols receptor LXR-alpha (Homo sapiens, UniProt Q13133); assay: Transactivation of human GAL4-fused LXRalpha expressed in African green monkey CV1 cells; type: cell-based
T2 sequence (Q13133 whole entry): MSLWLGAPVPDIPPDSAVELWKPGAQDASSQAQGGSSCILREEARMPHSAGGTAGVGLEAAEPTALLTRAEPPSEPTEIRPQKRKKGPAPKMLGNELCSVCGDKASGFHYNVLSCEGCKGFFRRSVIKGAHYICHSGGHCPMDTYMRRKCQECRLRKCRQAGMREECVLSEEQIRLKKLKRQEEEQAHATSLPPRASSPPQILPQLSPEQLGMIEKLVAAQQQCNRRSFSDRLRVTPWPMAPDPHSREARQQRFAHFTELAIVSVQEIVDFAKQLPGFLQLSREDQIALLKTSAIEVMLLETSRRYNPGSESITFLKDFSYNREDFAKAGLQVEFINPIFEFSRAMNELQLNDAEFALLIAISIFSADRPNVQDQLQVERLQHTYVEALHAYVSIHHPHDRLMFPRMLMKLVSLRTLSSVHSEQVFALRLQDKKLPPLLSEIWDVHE

[3] = biological target: T3, Nuclear receptor ROR-beta (Homo sapiens, UniProt Q92753); assay: Inverse agonist activity at human Gal4-fused RORbeta LBD (200 to 559 residues) expressed in human Jurkat cells measured after 18 hrs by steady-glo luciferase reporter gene assay; type: cell-based
T3 sequence (Q92753 whole entry): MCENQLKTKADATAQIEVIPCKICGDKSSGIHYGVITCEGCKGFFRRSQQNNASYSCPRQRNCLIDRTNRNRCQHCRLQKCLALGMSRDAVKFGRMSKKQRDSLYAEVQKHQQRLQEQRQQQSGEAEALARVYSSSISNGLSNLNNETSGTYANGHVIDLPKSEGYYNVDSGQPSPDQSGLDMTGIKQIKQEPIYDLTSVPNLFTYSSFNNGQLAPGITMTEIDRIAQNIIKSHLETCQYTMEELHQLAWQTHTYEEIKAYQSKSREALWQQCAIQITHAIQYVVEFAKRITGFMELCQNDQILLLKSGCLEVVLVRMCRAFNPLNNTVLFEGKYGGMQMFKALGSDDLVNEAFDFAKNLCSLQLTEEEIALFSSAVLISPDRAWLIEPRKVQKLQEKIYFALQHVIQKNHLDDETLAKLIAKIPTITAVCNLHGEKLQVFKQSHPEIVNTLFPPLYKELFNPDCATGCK

[4] = Stability in human liver microsomes assessed as parent compound remaining after 10 mins; type: ADME, Microsome; conditions: for remaining at 10 min: liver microsomes, read-out: Stability
[5] = biological target: T4, Nuclear receptor ROR-alpha (Homo sapiens, UniProt P35398); assay: Inverse agonist activity at human Gal4-fused RORalpha LBD (272 to 556 residues) expressed in human Jurkat cells measured after 18 hrs by steady-glo luciferase reporter gene assay; type: cell-based
T4 sequence (P35398 whole entry): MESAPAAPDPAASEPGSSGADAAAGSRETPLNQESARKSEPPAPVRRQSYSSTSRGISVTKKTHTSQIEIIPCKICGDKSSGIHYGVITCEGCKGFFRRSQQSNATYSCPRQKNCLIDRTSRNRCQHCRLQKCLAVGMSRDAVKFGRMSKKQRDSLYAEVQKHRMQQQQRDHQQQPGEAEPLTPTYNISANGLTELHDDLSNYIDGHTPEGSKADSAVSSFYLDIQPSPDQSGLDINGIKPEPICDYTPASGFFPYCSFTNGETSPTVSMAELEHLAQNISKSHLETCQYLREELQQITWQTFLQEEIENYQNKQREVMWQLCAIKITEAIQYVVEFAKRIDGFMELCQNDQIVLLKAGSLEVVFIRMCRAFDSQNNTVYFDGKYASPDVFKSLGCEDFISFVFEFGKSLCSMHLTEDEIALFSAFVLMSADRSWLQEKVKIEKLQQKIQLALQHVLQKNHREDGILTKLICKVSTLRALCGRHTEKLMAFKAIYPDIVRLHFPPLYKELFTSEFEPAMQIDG

[6] = biological target: T5, Oxysterols receptor LXR-beta (Homo sapiens, UniProt P55055); assay: Transactivation of human GAL4-fused LXRbeta expressed in African green monkey CV1 cells; type: cell-based
T5 sequence (P55055 whole entry): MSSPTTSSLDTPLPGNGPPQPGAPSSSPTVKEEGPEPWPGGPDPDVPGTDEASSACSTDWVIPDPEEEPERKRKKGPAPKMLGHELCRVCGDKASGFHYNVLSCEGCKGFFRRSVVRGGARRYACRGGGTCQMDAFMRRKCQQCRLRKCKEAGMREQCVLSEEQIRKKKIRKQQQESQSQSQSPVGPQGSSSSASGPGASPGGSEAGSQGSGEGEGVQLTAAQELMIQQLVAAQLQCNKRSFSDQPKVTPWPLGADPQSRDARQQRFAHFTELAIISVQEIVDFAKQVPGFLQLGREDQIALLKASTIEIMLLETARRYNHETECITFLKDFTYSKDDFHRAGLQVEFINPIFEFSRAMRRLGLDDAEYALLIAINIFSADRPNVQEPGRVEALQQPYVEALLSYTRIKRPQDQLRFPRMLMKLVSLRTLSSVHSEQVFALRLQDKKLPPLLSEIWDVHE

[7] = Stability in mouse liver microsomes assessed as parent compound remaining after 10 mins; type: ADME, Microsome; conditions: liver microsomes, read-out: Stability
PXR = biological target: T6, PXR (Homo sapiens, UniProt O75469); assay: (§1) Transactivation of PXR (unknown origin) expressed in human HepG2 cells assessed as maximum receptor activation response relative to control; type: cell-based; conditions: human HepG2 cells that express PXR, read-out: %max
T6 sequence (O75469 whole entry): T1 sequence (O75469 whole entry)

[8] = biological target: T1, Nuclear receptor subfamily 1 group I member 2; assay: as §1; type: cell-based; conditions: hepg2

SMILES	EC50 [1] [µM]	EC50 [2] [µM]	EC50 [3] [µM]	remaining at 10 min [4] [%]	EC50 [5] [µM]	EC50 [6] [µM]	remaining at 10 min [7] [%]	Emax (PXR) [%]	EC50 ([3]; jurkat) [µM]	Stability ([4]; microsomes, 10 min) [%]	EC50 ([5]; jurkat) [µM]	%max [8] [%]
O=C(N1CC[C@](c2ccc(C(F)(C(F)(F)F)C(F)(F)F)cc2)(S(=O)(=O)c2ccc(F)cc2)C1)C1(F)CCS(=O)(=O)CC1	> 50	> 7.5	> 40	100	> 40	> 7.5	90	16				
CS(=O)(=O)C1CCC(C(=O)N2CC[C@](c3ccc(C(F)(C(F)(F)F)C(F)(F)F)cc3)(S(=O)(=O)c3ccc(F)cc3)C2)CC1 (stereo in doubt; 29)	> 50	> 7.5				> 7.5			> 40	100	> 40	6
O=C([C@H]1CC[C@H](O)CC1)N1CC[C@](c2ccc(C(F)(C(F)(F)F)C(F)(F)F)cc2)(S(=O)(=O)c2ccc(F)cc2)C1	> 50	> 7.5	> 40	86	> 40	> 7.5	58	13				
O=C([C@H]1CC[C@H](c2nnn[nH]2)CC1)N1CC[C@](c2ccc(C(F)(C(F)(F)F)C(F)(F)F)cc2)(S(=O)(=O)c2ccc(F)cc2)C1	> 50	> 7.5	> 40	100	> 40	> 7.5	73	11				
O=C([C@H]1CC[C@H](CO)CC1)N1CC[C@](c2ccc(C(F)(C(F)(F)F)C(F)(F)F)cc2)(S(=O)(=O)c2ccc(F)cc2)C1	> 50	> 7.5	> 40	75	> 40	> 7.5	63	8				
COC[C@]1(C(=O)N2CC[C@](c3ccc(C(F)(C(F)(F)F)C(F)(F)F)cc3)(S(=O)(=O)c3ccc(F)cc3)C2)CC[C@H](C(=O)O)CC1	> 50	> 7.5	> 40	100	> 40	> 7.5	88	7				

Next, values leading:

EC50 [1] [µM]	EC50 [2] [µM]	EC50 [3] [µM]	remaining at 10 min [4] [%]	EC50 [5] [µM]	EC50 [6] [µM]	remaining at 10 min [7] [%]	Emax (PXR) [%]	EC50 ([3]; jurkat) [µM]	Stability ([4]; microsomes, 10 min) [%]	EC50 ([5]; jurkat) [µM]	%max [8] [%]	SMILES
> 18	> 7.5	> 40	82	> 40	> 7.5	95	94					CO[C@]1(C(=O)N2CC[C@](c3ccc(C(F)(C(F)(F)F)C(F)(F)F)cc3)(S(=O)(=O)c3ccc(F)cc3)C2)CC[C@H](C(=O)O)CC1
> 50	> 7.5	> 40	100	> 40	> 7.5	100	5					NC(=O)[C@H]1CC[C@H](C(=O)N2CC[C@](c3ccc(C(F)(C(F)(F)F)C(F)(F)F)cc3)(S(=O)(=O)c3ccc(F)cc3)C2)CC1
> 50	> 7.5	> 40	75	> 40	> 7.5	31	8					O=C(N1CC[C@](c2ccc(C(F)(C(F)(F)F)C(F)(F)F)cc2)(S(=O)(=O)c2ccc(F)cc2)C1)C1(CO)CCS(=O)(=O)CC1
> 50	> 7.5	> 40	100	> 40	> 7.5	84	11					O=C(O)[C@@H]1[C@@H]2C[C@@H](C(=O)N3CC[C@](c4ccc(C(F)(C(F)(F)F)C(F)(F)F)cc4)(S(=O)(=O)c4ccc(F)cc4)C3)C[C@@H]21
> 50	> 7.5	> 40	97	> 40	> 7.5	93	18					C[C@]1(C(=O)O)CC[C@H](C(=O)N2CC[C@](c3ccc(C(F)(C(F)(F)F)C(F)(F)F)cc3)(S(=O)(=O)c3ccc(F)cc3)C2)CC1
> 50	> 7.5	> 40	93	> 40	> 7.5	96	5					O=C(C1CCS(=O)(=O)CC1)N1CC[C@](c2ccc(C(F)(C(F)(F)F)C(F)(F)F)cc2)(S(=O)(=O)c2ccc(F)cc2)C1
> 17	> 7.5	> 40	100	> 40	> 7.5	70	62					O=C([C@H]1CC[C@](F)(C(=O)O)CC1)N1CC[C@](c2ccc(C(F)(C(F)(F)F)C(F)(F)F)cc2)(S(=O)(=O)c2ccc(F)cc2)C1
> 13	> 7.5	> 40	100	> 40	> 7.5	78	49					O=C(C1CCS(=O)(=O)C1)N1CC[C@](c2ccc(C(F)(C(F)(F)F)C(F)(F)F)cc2)(S(=O)(=O)c2ccc(F)cc2)C1 (stereo in doubt; 32)
5.2	> 7.5	> 40	3	> 40	> 7.5	0	32					CCC1(C(=O)N2CC[C@](c3ccc(C(F)(C(F)(F)F)C(F)(F)F)cc3)(S(=O)(=O)c3ccc(F)cc3)C2)CCS(=O)(=O)CC1
> 33	> 7.5	> 40	100	> 40	> 7.5	100	43					O=C(O)[C@@H]1C[C@@H]2[C@H](C1)[C@H]2C(=O)N1CC[C@](c2ccc(C(F)(C(F)(F)F)C(F)(F)F)cc2)(S(=O)(=O)c2ccc(F)cc2)C1
